Patent US5670526A, “1,3,4-oxadiazoles” (Otsuka Pharmaceutical Co., Ltd., priority 1995, dated 1997)

Key:
[1] = test system: ELAM; assay: ELISA for cell surface molecules: inhibition of ELAM expression on IL-1β stimulated HUVEC's; assay type: cell-based; conditions: Homo sapiens; for inhibition at 10 µg/mL: @ 10 μg/mL; for inhibition at 3 µg/mL: @ 3 μg/ml; for inhibition at 1 µg/mL: @ 1 μg/mL
Experimental: (§1) The following were used in an ELISA for cell surface molecules: Costar 96-well TC plates, 2% gelatin, 1% BSA-Dulbecco's PBS w/CaMg^++, IL-1β, primary antibody e.g., 7A9 for ELAM (EP 505749) secondary biotinylated goat anti-mouse IgG/IgM, streptavidin-peroxidase, OPD substrate tablets and 30% hydrogen peroxide.
(§2) To begin, 96-well plates were coated with 2% gelatin (1 hour). The excess gelatin was aspirated from the wells. HUVEC's were seeded at 20,000 cells/well in a 200 μl volume.
(§3) Prior to assay, the test compounds were dissolved in DMSO at a stock concentration of 3 mg/ml. The stock solutions were set at room temperature and observed to see if dissolution was complete. When monolayers reached confluence (24-28 hours after seeding) the test compounds were added to the wells at final concentrations of 10 μg/ml, 3 μg/ml and 1 μg/ml. The plates were incubated for 1 hour at 37° C. Then, IL-1β at a final concentration of 1 μg/ml was added and the plates incubated for 4 hours at 37° C. The supernatant was removed from the plates by flicking into a sink. The wells were washed 3× with 1% BSA-Dulbecco's PBS.
(§4) Primary antibody (7A9 for ELAM or a suitable antibody for VCAM or ICAM) at a concentration of 2.5 μg/ml in a 50 μl volume was added to each well. The plates were incubated at 4° C. for 45 minutes to 1 hour. The wells were washed 3× with 1% BSA Dulbecco's PBS. Secondary antibody (biotinylated goat anti-mouse IgG-IgM, commercially available) at 50 μl/well at a final dilution of 1:1,000 was added to the well and the plates were incubated for 45 minutes to 1 hour at 4° C. The wells were washed 3× with 1% BSA-Dulbecco's PBS.
(§5) Streptavidin-peroxidase at 50 μl/well with a final dilution of 1:3,000 was added to each well and the plates were incubated at 4° C. for 30 minutes. Again the plates were washed 3× with 1% BSA-Dulbecco's PBS.
(§6) Substrate solution (OPD tablets, citric acid buffer and hydrogen peroxide solution) was prepared and added at 100 μl/well. The plates were incubated 15 minutes at room temperature on a plate shaker and the reaction was stopped with 12.5% sulfuric acid. Plates were read for absorbance values at 492 nm.
(§7) The degree of inhibition in expression of ELAM or VCAM by a compound of the instant invention is manifest as a decrease in specific primary antibody binding. In the following table the IC50 values are provided using a representative sampling of compounds of the instant invention.

[2] = test system: VCAM; assay: ELISA for cell surface molecules: inhibition of VCAM expression on IL-1β stimulated HUVEC's; assay type: cell-based; conditions: Homo sapiens; for inhibition at 10 µg/mL: @ 10 μg/mL; for inhibition at 3 µg/mL: @ 3 μg/ml; for inhibition at 1 µg/mL: @ 1 μg/mL
Experimental: as §1, §2, §3, §4, §5, §6, §7

[3] = test system: Neutrophil migration; assay: Immune complex (BSA/anti-BSA) induced neutrophil migration into mouse skin, myeloperoxidase (MPO) assay; assay type: in vivo, C57BL/6 mouse; conditions: for inhibition in vivo at 12.5 mg/site: Mus musculus, Neutrophil, 12.5 mg of drug/site, i.d., 4 hours
Experimental: Neutrophil migration and infiltration into tissue spaces and the effect thereon of the compounds of the instant compounds can be tested. For example, immune complexes can be developed at a subcutaneous or intradermal site to draw neutrophils and the effect of the instant compounds on neutrophil migration can be assessed. A protocol is as follows. Mice are injected IV with bovine serum albumin (BSA). Then the mice are injected intradermally with antibody to BSA. For experimental animals, the test substance is administered concurrently intradermally or subcutaneously at the site of antibody deposition. After about four hours, the animal is sacrificed, the skin at the injection site is removed and then treated appropriately, such as assaying for myeloperoxidase, to determine the extent of neutrophil migration to the injection site.
An i.v. injection of 100 μl of BSA at 10 mg/ml in saline was followed by a 25 μl injection of anti-BSA i.d. on the back side of a pre-shaven C57BL/6 mouse. At time 0, along with the BSA and anti-BSA, the test compound or vehicle was administered i.d. at the site of the antibody injection in a volume of 25 μl (for example, 0.5 mg/μl solution). Four hours post injection, the skin was removed and a myeloperoxidase (MPO) assay performed (Mulligan et al., J. Imm. 151(10): 5666-5674, 1993).
Briefly, the skin sample was placed in a 17×100 mm test tube containing 2 ml of ice cold buffer (PBS, pH 7.4). The sample was ground for 30 seconds and placed on ice. The sample was vortexed for 10 seconds and then sonicated for three minutes in iced water. The sample was frozen in dry ice for 30 minutes. The sample then was thawed rapidly in a water bath for 10 minutes. An aliquot of 1.5 ml was removed and placed in a microfuge tube. The sample was spun at high speed in a cold room for 15 minutes. The sample then was titrated across the wells in a microtiter plate with the first well containing a 1:3 dilution of sample, for example, 50 μl of sample and 150 μl of buffer. Substrate and hydrogen peroxide were added to each well. Following a suitable incubation period, sodium azide was added to the wells and the absorbance monitored in a spectrophotometer at 460 nm. […]

[4] = test system: Concanavalin A (ConA)-induced liver injury; assay: Concanavalin A (ConA)-induced liver injury in mice, serum SGOT; assay type: in vivo, C57BL/6 mice; conditions: Mus musculus, ip, ConA 15 mg/kg i.v., 17 hours, read-out: SGOT (% decrease); for inhibition in vivo at 50 mg/kg: 50 mg/kg i.p.
Experimental: The following protocol was used for the Concanavalin A (ConA)-induced liver injury in mice. C57BL/6 mice were used. A solution of ConA (Sigma)in PBS was prepared at a concentration of 1.5 mg/ml. The mice were administered, i.p., with […] of a 10% DMSO solution containing varying amounts (adjusted to give 25 mg/kg to 50 mg/kg of compound) of the representative compounds of interest. Fifteen minutes later, the mice were treated via the tail vein with 15 mg/kg of ConA in PBS along with […] of 10% DMSO solution.
The mice were sacrificed after 17 hours and the blood collected into small conical tubes. The tubes were centrifuged and the serum collected and assayed for serum glutamic oxaloacetic transaminase (SGOT) (Sigma GOT kit). The high level enzyme standard (Sigma) was used to make the standard curve, as 100(undiluted), 50, 25, 12.5 and 0 S-F units/mi. Samples were diluted 1:5, 1:25 and 1:125 by adding 25 μl of serum to 100 μl of H2 O and serially diluting 25 μl into 100 μl two more times. Then 100 μl of the Sigma substrate were added to each tube along with 20 μl of each diluted sample and enzyme standard. The tube was incubated in a 37° C. bath with gentle shaking for 1 hour. To that was added […] of colorizing reagent and the tube was left to stand for 30 minutes. Then 500 μl of 0.8N NaOH solution were added, the tubes were capped and inverted to mix thoroughly. A 150 μl aliquot of each sample and 150 μl of the standard were added to wells of a 96-well plate and color formation was monitored at 490 nm. The amounts of SGOT were calculated using a standard curve, converted to Sigma-Frankel units/ml.

[5] = test system: Concanavalin A (ConA)-induced liver injury; assay: as above; assay type: in vivo, C57BL/6 mice; conditions: Mus musculus, ip; 20 mg/kg i.p.; ConA 15 mg/kg i.v., 17 hours; read-out: SGOT (% decrease)

SMILES | inhibition in vivo at 12.5 mg/site [3] | inhibition at 3 µg/mL [2] | inhibition in vivo at 50 mg/kg [4] | also measured
COc1ccnc2c1CCCCC2[S+]([O-])c1nnc(C)o1 (stereo not drawn) [Compound 73] |  |  |  | inhibition at 10 µg/mL [1]: 20%; inhibition at 10 µg/mL [2]: 20%
Cc1nnc([S+]([O-])Cc2ccccn2)o1 (stereo not drawn) [Compound 71] | 40% | 40% |  | inhibition at 3 µg/mL [1]: 30%
COc1ccnc2c1CCCCC2Sc1nnc(-c2nc(-c3ccccc3)cs2)o1 (stereo not drawn) [Compound 69] |  |  | 30% | 
CCc1nnc([S+]([O-])Cc2ncc(C)c(OC)c2C)o1 (stereo not drawn) [Compound 79] |  | 50% |  | inhibition at 3 µg/mL [1]: 35%
Cc1nnc([S+]([O-])Cc2ccccc2)o1 (stereo not drawn) [Compound 72] |  | 25% |  | inhibition at 3 µg/mL [1]: 15%
COc1c(C)cnc(C[S+]([O-])c2nnc(-c3ccccc3O)o2)c1C (stereo not drawn) [Compound 113] | 20% |  | 80% | inhibition at 1 µg/mL [1]: 30%; inhibition at 1 µg/mL [2]: 50%
[O-][S+](Cc1ccccn1)c1nnc(C23CC4CC(CC(C4)C2)C3)o1 (stereo not drawn) [Compound 102] | 25% | 30% |  | 
COc1c(C)cnc(C[S+]([O-])c2nnc(-c3cccs3)o2)c1C (stereo not drawn) [Compound 89] |  |  | 95% | inhibition at 1 µg/mL [1]: 25%; inhibition at 1 µg/mL [2]: 60%
Cc1nnc([S+]([O-])Cc2nccn2Cc2ccccc2)o1 (stereo not drawn) [Compound 75] | 20% | 100% |  | inhibition at 3 µg/mL [1]: 55%
[O-][S+](Cc1ccccn1)c1nnc(-c2ccccn2)o1 (stereo not drawn) [Compound 96] | 70% |  |  | inhibition at 1 µg/mL [1]: 50%; inhibition at 1 µg/mL [2]: 50%
COc1c(C)cnc(CSc2nnc(-c3ccccc3O)o2)c1C [Compound 60] |  |  | 60% | 
[O-][S+](Cc1ccccc1)c1nnc(-c2cc(-c3ccccc3)nc3ccccc23)o1 (stereo not drawn) [Compound 106] |  | 10% |  | 
COc1c(C)cnc(C[S+]([O-])c2nnc(C)o2)c1C (stereo not drawn) [Compound 70, 2-(3,5-dimethyl-4-methoxy-2-pyridyl)methylsulfinyl-5-methyl-1,3,4-oxadiazole] | 55% | 65% | 82% | inhibition at 3 µg/mL [1]: 55%
[O-][S+](Cc1ccccc1)c1nnc(-c2ccccc2O)o1 (stereo not drawn) [Compound 114] |  |  |  | inhibition at 1 µg/mL [1]: 20%; inhibition at 1 µg/mL [2]: 25%
COc1c(C)cnc(C[S+]([O-])c2nnc(-c3ccccc3)o2)c1C (stereo not drawn) [Compound 85] | 25% | 100% |  | 
COc1c(C)cnc(C[S+]([O-])c2nnc(-c3cccn3C)o2)c1C (stereo not drawn) [Compound 112] |  |  |  | inhibition at 1 µg/mL [1]: 25%; inhibition at 1 µg/mL [2]: 65%
[O-][S+](Cc1ccccn1)c1nnc(-c2ccncc2)o1 (stereo not drawn) [Compound 92] | 60% | 100% |  | 

SMILES | inhibition in vivo at 12.5 mg/site [3] | inhibition at 3 µg/mL [2] | inhibition in vivo at 50 mg/kg [4] | also measured
[O-][S+](Cc1ccccc1)c1nnc(-c2nc(-c3ccccc3)cs2)o1 (stereo not drawn) [Compound 121] |  | 50% |  | 
[O-][S+](Cc1ccccn1)c1nnc(-c2cccnc2)o1 (stereo not drawn) [Compound 100] | 60% | 80% |  | 
c1ccc(CSc2nnc(-c3ccccn3)o2)cc1 [Compound 44] |  |  |  | inhibition in vivo at 25 mg/kg ([4]; 25 mg/kg i.p.): 86%
c1ccc(CSc2nnc(-c3nc(-c4ccccc4)cs3)o2)cc1 [Compound 68] |  |  |  | decrease in MPO activity ([3]; test compound i.d. at site of antibody injection, 4 hours post injection): 55-60%
COc1c(C)cnc(C[S+]([O-])c2nnc(-c3ccc(C(F)(F)F)cc3)o2)c1C (stereo not drawn) [Compound 117] |  | 15% |  | 
COc1c(C)cnc(CSc2nnc(-c3nc(-c4ccccc4)cs3)o2)c1C [Compound 67] |  |  | 55% | 
CCCCc1nnc([S+]([O-])Cc2ncc(C)c(OC)c2C)o1 (stereo not drawn) [Compound 81] |  | 20% |  | 
[O-][S+](Cc1ccccc1)c1nnc(-c2ccccn2)o1 (stereo not drawn) [Compound 97] | 80% |  |  | inhibition at 1 µg/mL [1]: 50%; inhibition at 1 µg/mL [2]: 55%; inhibition in vivo at 20 mg/kg [5]: 45%
COc1c(C)cnc(CSc2nnc(C)o2)c1C [Compound 16, 2-(3,5-dimethyl-4-methoxy-2-pyridyl)methylthio-5-methyl-1,3,4-oxadiazole] |  |  | 85% | 
COc1c(C)cnc(C[S+]([O-])c2nnc(-c3cccc(C(F)(F)F)c3)o2)c1C (stereo not drawn) [Compound 116] |  | 25% |  | 
COc1c(C)cnc(CSc2nnc(-c3cccs3)o2)c1C [Compound 35] |  |  | 45% | 
[O-][S+](Cc1ccccc1)c1nnc(-c2cccnc2)o1 (stereo not drawn) [Compound 101] | 50% |  | 68% | inhibition at 10 µg/mL [1]: 75%; inhibition at 10 µg/mL [2]: 40%
c1ccc(CSc2nnc(-c3cccnc3)o2)cc1 [Compound 48] |  |  | 51% | 
COc1ccnc2c1CCCCC2Sc1nnc(C)o1 (stereo not drawn) [Compound 19] |  |  | 87% | 
Cc1nnc([S+]([O-])Cc2ncn(Cc3ccccc3)c2C)o1 (stereo not drawn) [Compound 76] | 20% |  |  | 
[O-][S+](Cc1ccccc1)c1nnc(-c2cccs2)o1 (stereo not drawn) [Compound 91] | 40% |  |  | inhibition at 1 µg/mL [1]: 20%; inhibition at 1 µg/mL [2]: 20%
CCCc1nnc([S+]([O-])Cc2ncc(C)c(OC)c2C)o1 (stereo not drawn) [Compound 80] |  | 70% |  | inhibition at 3 µg/mL [1]: 45%
